Legend:
[1] = test system: T47D cells; experiment: Cell cycle analysis (flow cytometry); format: cell-based; details: 48-hour treatment
Procedure: (§1) The effect of Rilpivirine on cell cycle distribution in different cancer cell lines was evaluated by flow cytometric analysis. Briefly, cells were seeded in 6-well plates at a density of 6 × 10^4 cells/well. All plates were incubated overnight at 37° C. in a 5% CO2 incubator. Following the incubation, the test compounds (Rilpivirine (Ril) and comparators, Alisertib (Ali; a known Aurora A inhibitor) and Etravirine (Etra; 4-[[6-amino-5-bromo-2-[(4-cyanophenyl)amino]-4-pyrimidinyl]oxy]-3,5-dimethylbenzonitrile - a structurally similar NNRTI drug compound sold under the brand name Intelence® (Janssen Therapeutics)) were added to individual wells and the plates were incubated at same condition for 24 h, 48 h or 72 h. Subsequently, the medium was removed from the wells and transferred into fluorescence-activated cell sorting (FACS) tubes. The adherent cells remaining were trypsinised, re-suspended in media and transferred into the FACS tubes. Cells were centrifuged, fixed with cold 70% ethanol for 15 min and pelleted. The pelleted cells were then re-suspended in 200 µL propidium iodide (PI) solution (50 µg/mL propidium iodide, 0.1 mg/mL ribonuclease A, 0.1% sodium citrate, 0.1% triton X-100) and incubated in the dark for 1.5 h at room temperature. Following the incubation, 200 µL PBS was added. Samples were assessed using a flow cytometer (Cytoflex; Beckman Coulter Inc, Brea, CA, United States of America) and data were analysed using the Cytexpert software.

[2] = test system: PC3 cells; experiment: Cell cycle analysis (flow cytometry); format: cell-based; details: 48 hour treatment
Procedure: as §1

[3] = biological target: T1, Aurora A kinase (Homo sapiens, UniProt O14965); experiment: Kinase assay; format: biochemical; details: kinase inhibition profiling (FIG. 2), concentration not given
T1 construct: purchased Promega (ADP-Glo kits) or Reaction Biology Corporation / Eurofins discovery services (external)
T1 sequence (O14965 1-403): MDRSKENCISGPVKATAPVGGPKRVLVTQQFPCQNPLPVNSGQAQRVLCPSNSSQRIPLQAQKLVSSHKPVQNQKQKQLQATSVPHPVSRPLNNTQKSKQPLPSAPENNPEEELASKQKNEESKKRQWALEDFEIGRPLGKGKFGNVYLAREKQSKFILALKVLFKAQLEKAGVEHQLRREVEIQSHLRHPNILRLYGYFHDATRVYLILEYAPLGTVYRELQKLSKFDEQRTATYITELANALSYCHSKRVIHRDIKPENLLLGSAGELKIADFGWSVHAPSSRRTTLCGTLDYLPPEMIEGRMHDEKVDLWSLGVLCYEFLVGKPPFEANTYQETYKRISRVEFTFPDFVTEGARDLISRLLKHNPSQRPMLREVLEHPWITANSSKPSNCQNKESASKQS
Procedure: (§2) The ability of compounds to inhibit kinases was measured using ADP-Glo^Tm assay kits (Promega, Madison, WI, United States of America) or externally using radioisotope based assays (Reaction Biology Corporation, Malvern, PA, United States of America and Eurofins discovery services, France). The ADP-Glo assay was performed as reported previously (Basnet SK et al., Mol Pharmacol 88(5):935-948, 2015).The assay plate was read for luminescence using Envision multi-label plate reader (PerkinElmer, Waltham, MA, United States of America). Half-maximal inhibition (IC50) values were determined from a plot of percent residual activity versus concentration of test compounds using GraphPad Prism software. Ki values were calculated from IC50 values using the Cheng-Prusoff equation: Ki= IC50/ [1 + ([ATP]/Km ATP)], where [ATP] is the ATP concentration used for the IC50 determination and Km ATP for each kinase is determined from an individual experiment.

[4] = biological target: T2, Aurora B kinase (Homo sapiens, UniProt Q96GD4); experiment: Kinase assay; format: biochemical; details: kinase inhibition profiling (FIG. 2), concentration not given
T2 construct: purchased Promega (ADP-Glo kits) or Reaction Biology Corporation / Eurofins discovery services (external)
Procedure: as §2

T2 sequence (Q96GD4 whole entry): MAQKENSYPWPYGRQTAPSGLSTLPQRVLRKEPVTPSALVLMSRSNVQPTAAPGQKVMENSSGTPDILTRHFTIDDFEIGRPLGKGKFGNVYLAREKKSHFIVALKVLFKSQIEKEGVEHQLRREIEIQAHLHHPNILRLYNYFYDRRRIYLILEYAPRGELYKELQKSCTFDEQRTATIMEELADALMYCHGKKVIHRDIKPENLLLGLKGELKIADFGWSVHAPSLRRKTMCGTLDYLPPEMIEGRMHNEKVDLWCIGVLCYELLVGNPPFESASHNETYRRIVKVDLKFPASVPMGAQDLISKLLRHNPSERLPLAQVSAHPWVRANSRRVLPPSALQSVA

Row | inhibitory activity against Aurora A [3] | inhibitory activity against Aurora B [4] | Structure (SMILES) | cell cycle arrest ([1]; 10 µM) | cell cycle arrest ([2]; 10 µM) | cell cycle arrest ([1]; p53 mutant) | cell cycle arrest ([2]; p53 mutant)
1 | no inhibitory activity | no inhibitory activity | Cc1cc(C#N)cc(C)c1Oc1nc(Nc2ccc(C#N)cc2)nc(N)c1Br [Etravirine, 4-[[6-amino-5-bromo-2-[(4-cyanophenyl)amino]-4-pyrimidinyl]oxy]-3,5-dimethylbenzonitrile] | no G2/M arrest | did not induce G2/M arrest | – | –
2 | – | – | COc1cc(Nc2ncc3c(n2)-c2ccc(Cl)cc2C(c2c(F)cccc2OC)=NC3)ccc1C(=O)O [Alisertib] | – | – | arrest T47D breast cancer cells in G2/M phase | induce G2/M arrest

From patent US20230310427A1, “NEW THERAPEUTIC USE OF RILPIVIRINE” (UNIVERSITY OF SOUTH AUSTRALIA, priority 2020, published 2023)
